Test results: publication PMC10563463 (Cell Transplantation, 2023)

Molecular target: recombinant human SUV39H1 (rhSUV39H1) (Homo sapiens, UniProt O43463)
Assay: biochemical

Chain of recombinant human SUV39H1 (rhSUV39H1) (O43463 whole entry): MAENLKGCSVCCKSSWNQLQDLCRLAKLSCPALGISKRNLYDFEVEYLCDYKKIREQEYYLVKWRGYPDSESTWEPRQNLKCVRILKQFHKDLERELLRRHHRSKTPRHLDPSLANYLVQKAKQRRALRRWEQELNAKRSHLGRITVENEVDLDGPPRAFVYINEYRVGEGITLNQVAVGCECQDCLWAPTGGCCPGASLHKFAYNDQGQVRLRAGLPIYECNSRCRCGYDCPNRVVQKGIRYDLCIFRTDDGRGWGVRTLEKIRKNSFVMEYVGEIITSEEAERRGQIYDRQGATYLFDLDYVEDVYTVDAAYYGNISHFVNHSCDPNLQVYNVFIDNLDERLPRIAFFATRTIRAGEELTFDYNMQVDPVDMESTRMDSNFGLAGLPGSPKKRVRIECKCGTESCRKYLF

Kd: 21.4 µM
Structure (SMILES): CC(C)(O)[C@@H]1CC[C@](C)([C@H]2[C@@H](O)C[C@@]3(C)[C@@H]4C[C@H](O[C@@H]5O[C@H](CO)[C@@H](O)[C@H](O)[C@H]5O)[C@H]5C(C)(C)[C@@H](O[C@@H]6OC[C@@H](O)[C@H](O)[C@H]6O)CC[C@@]56C[C@@]46CC[C@]23C)O1 [Astragaloside IV]
